Experimental data as given in PubChem BioAssay (NCI).
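These data come from cells grown in 96-well plates and exposed to compound for 48 hours at five concentrations. GI50 = concentration required for 50% inhibition of growth. TGI is the concentration that stops growth completely.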

What was measured:
Assay in all cases: NCI tumour cell line growth inhibition, 48 h
786-0 renal = system: 786-0 renal
MOLT-4 leukemia = system: MOLT-4 leukemia
A549 NSCLC = system: A549 NSCLC
CAKI-1 renal = system: CAKI-1 renal
A498 renal = system: A498 renal
HOP-62 NSCLC = system: HOP-62 NSCLC
SK-OV-3 ovarian = system: SK-OV-3 ovarian
CCRF-CEM leukemia = system: CCRF-CEM leukemia
DU-145 prostate = system: DU-145 prostate
MALME-3M melanoma = system: MALME-3M melanoma

Row | SMILES | TGI (786-0 renal) | TGI (MOLT-4 leukemia) | TGI (A549 NSCLC) | TGI (CAKI-1 renal) | TGI (A498 renal) | TGI (HOP-62 NSCLC) | TGI (SK-OV-3 ovarian) | TGI (CCRF-CEM leukemia) | TGI (DU-145 prostate) | TGI (MALME-3M melanoma) | GI50 (786-0 renal) | GI50 (MOLT-4 leukemia) | GI50 (A549 NSCLC) | GI50 (CAKI-1 renal) | GI50 (A498 renal) | GI50 (HOP-62 NSCLC) | GI50 (SK-OV-3 ovarian) | GI50 (MALME-3M melanoma) | GI50 (DU-145 prostate) | GI50 (CCRF-CEM leukemia)
1 | CC[C@@]1(O)C(=O)OCc2c1cc1n(c2=O)Cc2cc3c(NC(=O)CN)cccc3nc2-1 | 3 µM | 0.161 µM | > 48.5 µM | 2.14 µM | 3.27 µM | 9.22 µM | 25.3 µM | 2.33 µM | 1.98 µM |  |  |  |  |  |  |  |  |  |  | 
2 | C[Si]12OCCCN(CCO1)CCO2 | > 100 µM | > 100 µM | > 100 µM | > 100 µM | > 100 µM |  | > 100 µM | > 100 µM |  | > 100 µM |  |  |  |  |  |  |  |  |  | 
3 | COc1ccc(-n2c3c(c4c(CN(C)C)c(O)c(C)cc42)CCc2ccccc2C3=O)cc1 | > 100 µM | 65.7 µM | > 100 µM | > 100 µM | > 100 µM | > 100 µM | > 100 µM |  | > 100 µM | > 100 µM | 29.7 µM | 22.9 µM | 55.6 µM | 24.5 µM | 60 µM | 40.8 µM | > 100 µM | 25.4 µM | 21.4 µM | 
4 | NC(=O)NCCSC1CCCCC1O (stereo not given) | > 100 µM | 78 µM | > 100 µM | > 100 µM | > 100 µM | > 100 µM | > 100 µM |  | > 100 µM | > 100 µM |  |  |  |  |  |  |  |  |  | 
5 | CN1C(=O)C(c2c[nH]c3ccccc23)=C(c2c(-c3c[nH]c4ccccc34)[nH]c3ccccc23)C1=O | 14.1 µM |  | 13.9 µM | 4.63 µM | 8.12 µM | 11.9 µM | 13 µM | 12.4 µM | 12.2 µM |  | 3.44 µM |  | 3.83 µM | 1.48 µM | 1.89 µM | 2.1 µM | 3.14 µM |  | 3 µM | 3.19 µM
6 | Cn1c(=O)oc2cc(C3CCC(=O)N3Cc3ccc(Cl)cc3)ccc21 (stereo not given) | > 100 µM | > 100 µM | > 100 µM | > 100 µM |  | > 100 µM | > 100 µM | > 100 µM |  | > 100 µM |  |  |  |  |  |  |  |  |  | 
7 | Cc1cc2c(cc1Br)C1(C)CCC(C)C1(C)O2 (stereo not given) | 66.8 µM | 35.6 µM | > 100 µM | > 100 µM | > 100 µM | > 100 µM | > 100 µM | 56.1 µM |  | 42.1 µM |  |  |  |  |  |  |  |  |  | 
8 | COc1ccc(-c2csc3c2-n2cccc2C3=O)cc1O | 25.2 µM | 6.1 µM | > 91.5 µM | > 63.2 µM | 13.5 µM | > 100 µM | 18.1 µM | 0.4 µM |  | > 100 µM | 0.0977 µM | 0.132 µM | 0.112 µM | 0.0497 µM | 1.13 µM | 0.0578 µM | 0.0452 µM | 35.3 µM |  | 0.059 µM
9 | Cc1ccc2nc(N/N=C/c3cccc(C)n3)cc(C)c2c1 | 33.7 µM |  | 43.4 µM | 31 µM | 37.6 µM | 36.8 µM | 30.2 µM |  | 36.3 µM | 30.3 µM |  |  |  |  |  |  |  |  |  | 
10 | O=C(NC1(C(=O)O)CC1c1ccccc1)c1ccccc1 (stereo not given) | > 100 µM | > 100 µM | > 100 µM | > 100 µM | > 100 µM | > 100 µM | > 100 µM |  | > 100 µM | > 100 µM |  |  |  |  |  |  |  |  |  | 
11 | C=C1C(=O)O[C@H]2C[C@@H]1CCC1(C)OC1CC/C(C)=C/CC[C@H]2C (stereo not given in full) | 33.1 µM | 33.5 µM | 39 µM |  | 33.6 µM | 34.5 µM | 37.1 µM |  |  |  | 18.4 µM | 18 µM | 19.7 µM |  | 17.7 µM | 18.9 µM | 19.3 µM |  |  | 
12 | COc1cc(/C=C2\C(=O)Nc3ccccc32)cc(OC)c1OC | > 100 µM | 71.3 µM | > 100 µM | > 100 µM | > 100 µM | 62.3 µM | > 100 µM | > 100 µM |  | > 100 µM | 23.2 µM | 12 µM | 20.3 µM | 18.9 µM | 27.4 µM | 22.2 µM | 26.1 µM | 67 µM |  | 8.82 µM
13 | CNC(=O)OCc1[nH]ccc2c(C)c3nc4ccc(OC)cc4c3cc12 | 20.5 µM | 3.89 µM | > 100 µM | > 100 µM | 30.7 µM | 56 µM | > 100 µM | 13.6 µM |  | > 77.8 µM |  |  |  |  |  |  |  |  |  | 
14 | O=C(O)CCCNS(=O)(=O)c1ccc2ccccc2c1 | > 100 µM | > 100 µM | > 100 µM | > 100 µM | > 100 µM |  | > 100 µM | > 100 µM |  | > 100 µM |  |  |  |  |  |  |  |  |  | 
15 | CC(=O)O[C@H]1CC[C@@]2(C)C(=CC[C@@H]3C2CC[C@]2(C)Nc4[nH]ncc4CC32)C1 (stereo not given in full) | > 100 µM | 35.8 µM | > 100 µM | > 100 µM | > 100 µM | > 100 µM | > 100 µM | 40.3 µM |  | 86.1 µM |  |  |  |  |  |  |  |  |  | 
16 | NC(N)=N/N=C/c1c(-c2ccc(Cl)c([N+](=O)[O-])c2)nc2ccccn12 | 1.9 µM | 3.64 µM | 2.99 µM | 42.4 µM | 14.4 µM | 2.9 µM |  |  | 5.6 µM |  | 0.512 µM | 1.68 µM | 1.63 µM | 11.8 µM | 5.82 µM | 1.56 µM |  |  | 1.94 µM | 
17 | CC(=O)OC12CC(C)C3(O)C4C=C(C)C(=O)[C@@]4(O)CC(CO)=C[C@H]3C1C2(C)C (stereo not given in full) | > 1000 µM | > 1000 µM |  |  |  |  | > 1000 µM | > 1000 µM | > 1000 µM | > 1000 µM | > 1000 µM |  |  |  | 0.346 µM |  |  | > 1000 µM | > 1000 µM | 
18 | CN(CCN(C)C(=O)CCOS(C)(=O)=O)C(=O)CCOS(C)(=O)=O | > 100 µM | > 100 µM | > 100 µM | > 100 µM | > 100 µM | > 100 µM | > 100 µM | > 100 µM |  | > 100 µM |  |  |  |  |  |  |  |  |  | 
19 | CCOC(=O)c1cnc2cc3cccccc3n2c1=O | > 100 µM | > 100 µM | > 100 µM | > 100 µM | > 100 µM | > 100 µM |  | > 100 µM |  |  |  |  |  |  |  |  |  |  |  | 
20 | Clc1cc(Cl)cc(Nc2nc3ccccc3nc2-c2cccs2)c1 | 31.7 µM | > 100 µM | > 100 µM |  |  | > 100 µM | 71.1 µM | > 100 µM |  | > 100 µM |  |  |  |  |  |  |  |  |  | 
21 | COc1ccc2c(c1)CCCC1C3=NCCC3(C)CSC21 (stereo not given) | > 100 µM | > 100 µM | > 100 µM |  |  |  | > 100 µM | > 100 µM |  |  |  |  |  |  |  |  |  |  |  | 
